According to patent US20040138272A1, “1,4-Substituted cyclohexane derivatives” (priority 2002, published 2004):

What was measured:
ROCK II = target: T1, ROCK II (Rattus norvegicus, UniProt Q62868); test: ROCK II kinase assay with [γ-32P] ATP and myelin basic protein substrate (FIG. 3); assay type: biochemical; details: 100 μM ATP, 30 min at 30° C.
T1 construct: purchased Upstate (Lake Placid, N.Y.)
From the text: The ability of compounds to inhibit ROK activity may be tested in a cell-free assay system using recombinant ROK, radiaoactive ATP, and Myelin basic Protein (MBP). MBP is a highly phosphorylated protein, is inexpensive to buy in purified form, is phosphorylated by ROK, and is used as the assay substrate for phosphorylation. Recombinant ROK has been prepared from a number of sources. Overexpression in mammalian cells provides a convenient, easily renewed source of ROK activity. Measurement of Rho-associated kinase (ROK) activity is important to determine the potency of novel inhibitors. MBP is a substrate for ROK and a number of other protein kinases, making it useful both to quantitate ROK activity and to indicate the potency and specificity of novel inhibitors for ROK. […]
ROCK II was assayed in 20 mM MOPS, pH 7.2, 25 mM β-glycerophosphate, 5 mM EGTA, 1 mM sodium orthovanadate, 1 mM dithiothreitol with dephosphorylated myelin basic protein (MBP, 0.2 mg/ml) as substrate with or without BA-1016 or BA-1017. […] Assays were initiated by adding Mg^2+/ATP and terminated by spotting 40 μl of each reaction onto phosphocellulose paper (P81 paper, Whatman), followed by washes in 0.75% phosphoric acid to remove ATP and then dried, put in scintillation cocktail and counted to measure ^32P incorporation. Radioactivity is measured using a scintillation counter. […]

[1] = test system: retinal ganglion cells (RGC); test: Retinal ganglion cell survival 7 days after optic nerve axotomy, intravitreal injection; assay type: in vivo, rat; details: for % Survival / Average RGC counts: 7 days after axotomy
From the text: The retinal ganglion cell (RGC) response to injury and ischemia has been well documented (Berkelaar et al., 1994; Selles-Navarro et al., 1996; Vidal-Sanz et al., 1988; Villegas-Perez et al., 1998; Villegas-Perez et al., 1993). Transection of the optic nerve (ON) in the adult rat, as a model of fiber tract lesion in the adult mammalian CNS, results in delayed, mainly apoptotic death of 80-90% of retinal ganglion cells (RGCs) within 14 days post-lesion. Because of good surgical accessibility of the retina and the optic nerve, the retino-tectal projection represents not only a convenient model to study the molecular mechanisms underlying neuronal death but also serves as a suitable system for investigating potential neuroprotective agents in vivo.
After optic nerve transection, many of the retinal ganglion cells (RGC) in the eye die by apoptosis. The ability of BA-1016 to support RGC cell survival after optic nerve injury was tested. A single injection of BA-1016 was made in the eye, and one week later cell survival was assessed. Three animals were examined for each treatment group. Cell survival was improved one week after BA-1016. Neurotrophic factors that are known to rescue RGCs also give improved cell surival one week after axotomy, but multiple or chronic application is needed to increase the number of surviving cells.
Experiments were performed on adult female CD rats (180-200 g; Charles River, Canada). Animals were cared for according to the Canadian Council on Animal Care. Rats were under general anaesthesia with isofluorane connected to Moduflex Access anaesthesia machine during experimental procedures. Ophthalmic eye ointment (Polysporin) was applied to prevent corneal desiccation. […] All rats were pre-labelled with Fluorogold one week prior to optic nerve lesion.
One week after Fluorogold application, the left optic nerve was transected 1 mm from the eye. […] There are blood vessels on pia and optic nerve. The pia mater sheath was lifted and a lateral incision exposed the optic nerve. It was important not to cut the optic nerve before cutting the pia. When pia was cut, the optic nerve was moved gently to dislodge it from its sheath so that the scissors could be slipped under it to cut it. It was important to not pull the nerve at this point to avoid compromising the blood supply. When the optic nerve was well exposed, small scissors were slid tangentially under optic nerve, making sure to see their end on other side of the nerve, then cutting with one clean cut at 1 mm from the eye. Scissor blades were used as a reference for the 1 mm distance.
In the group of animals assigned to receive intravitreal injection after axotomy, the compounds of interest were injected into the vitreous space. […] The needle was removed after one minute. […]
A binocular microscope was used to view the eye during injection. The skin was closed with staples (auto clips) and the integrity of the retinal vasculature was evaluated by a postoperative ophthalmoscopy using a water-covered microscope slide. […] Finally the animals were returned to the cage and closely monitored until awakened
Seven days after axotomy, animals were killed by injecting an overdose of Chloral hydrate intraperitoneally and then they were fixed by perfusion with 4% paraformaldehyde (PFA), 0.1 M phosphate buffer; the eyes were remove carefully transecting the ocular muscles with scissors and forceps. […] RGCs are examined under the fluorescence microscope with an UV filter (365/420). […]

T1 sequence (Q62868 11-550 limits assumed): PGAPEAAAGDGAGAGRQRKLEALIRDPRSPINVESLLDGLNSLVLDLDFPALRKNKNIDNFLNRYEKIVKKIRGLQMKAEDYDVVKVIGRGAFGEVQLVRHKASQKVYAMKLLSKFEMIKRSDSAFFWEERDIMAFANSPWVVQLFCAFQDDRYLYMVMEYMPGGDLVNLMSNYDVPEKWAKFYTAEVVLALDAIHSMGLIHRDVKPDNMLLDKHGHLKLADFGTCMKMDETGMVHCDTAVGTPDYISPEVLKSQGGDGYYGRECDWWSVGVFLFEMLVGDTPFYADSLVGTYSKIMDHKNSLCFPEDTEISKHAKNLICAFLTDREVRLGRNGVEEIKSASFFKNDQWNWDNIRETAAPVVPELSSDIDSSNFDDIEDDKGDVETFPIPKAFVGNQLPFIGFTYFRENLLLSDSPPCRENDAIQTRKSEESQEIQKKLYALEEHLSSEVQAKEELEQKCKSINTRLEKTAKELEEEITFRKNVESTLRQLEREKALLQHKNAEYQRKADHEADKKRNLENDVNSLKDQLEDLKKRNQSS

(R)-trans-4-(But-3′-en-1′-amino)-N-(4″-pyridyl)cyclohexane Carboxamide Dihydrochloride [BA-1016]
inhibition of ROCKII activity (FIG. 3) (ROCK II): inhibition of ROCKII activity | % Survival ([1]; Axotomy + 0.1 mM): 59% | Average RGC counts ([1]; Axotomy + 0.1 mM): 1352 | % Survival ([1]; Axotomy + 1 mM): 60% | Average RGC counts ([1]; Axotomy + 1 mM): 1378 | RGC cell survival after optic nerve injury ([1]; single injection in the eye, one week): improved
